Calls of active or inactive are those of the source. No rule for the calls is given here.

The source of these data is PubChem BioAssay AID1259407 (Chemical Carcinogenesis Research Information System (CCRIS), 2018).

The data set deals with CCRIS mutagenicity, Ames/micronucleus/aberration tests. The data set is described as follows: CCRIS mutagenicity studies.
Setting [1] is: Test System: AMES SALMONELLA TYPHIMURIUM, Strain/Indicator: TA102, Metabolic Activation: NONE, Method: PREINCUBATION

On to `O=C/C=C/c1ccccc1`, for which the mutagenic call is, setting by setting: (End Point: IN VITRO CHROMOSOMAL ABERRATIONS, Test System: CHINESE HAMSTER OVARY CELLS, Metabolic Activation: NONE) “inactive; negative”; (End Point: IN VITRO CHROMOSOMAL ABERRATIONS, Test System: CHINESE HAMSTER OVARY CELLS, Metabolic Activation: RAT, LIVER, S-9, AROCLOR 1254) “inactive; negative”; (End Point: IN VIVO MICRONUCLEUS, Test System: BONE MARROW POLYCHROMATIC ERYTHROCYTES, Species: MOUSE, Strain/Sex: DDY/MALE, Route: IP) “inactive; negative”; (Test System: AMES SALMONELLA TYPHIMURIUM, Strain/Indicator: TA97, Metabolic Activation: NONE, Method: PREINCUBATION (120 MIN)) “inactive; negative”; (Test System: AMES SALMONELLA TYPHIMURIUM, Strain/Indicator: TA97, Metabolic Activation: S-9, Method: PREINCUBATION (120 MIN)) “inactive; negative”; (Test System: AMES SALMONELLA TYPHIMURIUM, Strain/Indicator: TA98, Metabolic Activation: HAMSTER, LIVER, S-9, AROCLOR 1254 (2.5-20%), Method: PREINCUBATION) “inactive; negative”. Moreover, the mutagenic call reads like this: (Test System: AMES SALMONELLA TYPHIMURIUM, Strain/Indicator: TA98, Metabolic Activation: HAMSTER, LIVER, S-9, AROCLOR 1254, Method: STANDARD PLATE) “inactive; negative”; (Test System: AMES SALMONELLA TYPHIMURIUM, Strain/Indicator: TA98, Metabolic Activation: NONE, Method: PREINCUBATION (120 MIN)) “inactive; negative”; (Test System: AMES SALMONELLA TYPHIMURIUM, Strain/Indicator: TA98, Metabolic Activation: NONE, Method: STANDARD PLATE) “inactive; negative”; (Test System: AMES SALMONELLA TYPHIMURIUM, Strain/Indicator: TA98, Metabolic Activation: RAT, LIVER, S-9, AROCLOR 1254, Method: STANDARD PLATE) “inactive; negative”; (Test System: AMES SALMONELLA TYPHIMURIUM, Strain/Indicator: TA98, Metabolic Activation: S-9, Method: PREINCUBATION (120 MIN)) “inactive; negative”; (Test System: AMES SALMONELLA TYPHIMURIUM, Strain/Indicator: TA100, Metabolic Activation: HAMSTER, LIVER, S-9, AROCLOR 1254 (2.5-20%), Method: PREINCUBATION) “inactive; negative”. Besides, the mutagenic call is, setting by setting: (Test System: AMES SALMONELLA TYPHIMURIUM, Strain/Indicator: TA100, Metabolic Activation: HAMSTER, LIVER, S-9, AROCLOR 1254, Method: STANDARD PLATE) “inactive; negative”; (Test System: AMES SALMONELLA TYPHIMURIUM, Strain/Indicator: TA100, Metabolic Activation: NONE, Method: PREINCUBATION) “inactive; negative”; (Test System: AMES SALMONELLA TYPHIMURIUM, Strain/Indicator: TA100, Metabolic Activation: NONE, Method: PREINCUBATION (120 MIN)) “inactive; negative”; (Test System: AMES SALMONELLA TYPHIMURIUM, Strain/Indicator: TA100, Metabolic Activation: NONE, Method: STANDARD PLATE) “inactive; negative”; (Test System: AMES SALMONELLA TYPHIMURIUM, Strain/Indicator: TA100, Metabolic Activation: RAT LIVER S-9, AROCLOR 1254, Method: PREINCUBATION) “inactive; negative”; (Test System: AMES SALMONELLA TYPHIMURIUM, Strain/Indicator: TA100, Metabolic Activation: RAT, LIVER, S-9, AROCLOR 1254, Method: PREINCUBATION) “inactive; negative”. The mutagenic call was “inactive; negative” (Test System: AMES SALMONELLA TYPHIMURIUM, Strain/Indicator: TA100, Metabolic Activation: RAT, LIVER, S-9, AROCLOR 1254, Method: STANDARD PLATE); “inactive; negative” (Test System: AMES SALMONELLA TYPHIMURIUM, Strain/Indicator: TA100, Metabolic Activation: S-9, Method: PREINCUBATION (120 MIN)); “inactive; negative” (Test System: AMES SALMONELLA TYPHIMURIUM, Strain/Indicator: TA102, Metabolic Activation: HAMSTER, LIVER, S-9, AROCLOR 1254, Method: PREINCUBATION); “inactive; negative” (Test System: AMES SALMONELLA TYPHIMURIUM, Strain/Indicator: TA102, Metabolic Activation: MOUSE LIVER S-9, AROCLOR 1254, Method: PREINCUBATION); “inactive; negative” under setting [1]; “inactive; negative” (Test System: AMES SALMONELLA TYPHIMURIUM, Strain/Indicator: TA102, Metabolic Activation: RAT LIVER S-9, AROCLOR 1254, Method: PREINCUBATION). Further, the mutagenic call by setting is: (Test System: AMES SALMONELLA TYPHIMURIUM, Strain/Indicator: TA102, Metabolic Activation: RAT, LIVER, S-9, AROCLOR 1254, Method: PREINCUBATION) “inactive; negative”; (Test System: AMES SALMONELLA TYPHIMURIUM, Strain/Indicator: TA104, Metabolic Activation: MOUSE LIVER S-9, AROCLOR 1254, Method: PREINCUBATION) “inactive; negative”; (Test System: AMES SALMONELLA TYPHIMURIUM, Strain/Indicator: TA104, Metabolic Activation: NONE, Method: PREINCUBATION) “inactive; negative”; (Test System: AMES SALMONELLA TYPHIMURIUM, Strain/Indicator: TA104, Metabolic Activation: RAT LIVER S-9, AROCLOR 1254, Method: PREINCUBATION) “inactive; negative”; (Test System: AMES SALMONELLA TYPHIMURIUM, Strain/Indicator: TA1535, Metabolic Activation: HAMSTER, LIVER, S-9, AROCLOR 1254, Method: STANDARD PLATE) “inactive; negative”; (Test System: AMES SALMONELLA TYPHIMURIUM, Strain/Indicator: TA1535, Metabolic Activation: NONE, Method: STANDARD PLATE) “inactive; negative”. The mutagenic call (Test System: AMES SALMONELLA TYPHIMURIUM, Strain/Indicator: TA1535, Metabolic Activation: RAT, LIVER, S-9, AROCLOR 1254, Method: STANDARD PLATE) is “inactive; negative”; the mutagenic call (Test System: AMES SALMONELLA TYPHIMURIUM, Strain/Indicator: TA1537, Metabolic Activation: HAMSTER, LIVER, S-9, AROCLOR 1254, Method: STANDARD PLATE) is “inactive; negative”; the mutagenic call (Test System: AMES SALMONELLA TYPHIMURIUM, Strain/Indicator: TA1537, Metabolic Activation: NONE, Method: PREINCUBATION) was “inactive; negative”; the mutagenic call (Test System: AMES SALMONELLA TYPHIMURIUM, Strain/Indicator: TA1537, Metabolic Activation: NONE, Method: STANDARD PLATE) was “inactive; negative”; the mutagenic call (Test System: AMES SALMONELLA TYPHIMURIUM, Strain/Indicator: TA1537, Metabolic Activation: RAT, LIVER, S-9, AROCLOR 1254, Method: STANDARD PLATE) was “inactive; negative”; the mutagenic call (Test System: AMES SALMONELLA TYPHIMURIUM, Strain/Indicator: TA1538, Metabolic Activation: HAMSTER, LIVER, S-9, AROCLOR 1254, Method: STANDARD PLATE) was “inactive; negative”. The mutagenic call was “inactive; negative” (Test System: AMES SALMONELLA TYPHIMURIUM, Strain/Indicator: TA1538, Metabolic Activation: NONE, Method: STANDARD PLATE); “inactive; negative” (Test System: AMES SALMONELLA TYPHIMURIUM, Strain/Indicator: TA1538, Metabolic Activation: RAT, LIVER, S-9, AROCLOR 1254, Method: STANDARD PLATE); “active; positive. reevaluation of results: positive” (Test System: MOUSE LYMPHOMA, Strain/Indicator: L5178Y (TK+/TK-), Metabolic Activation: NONE, Method: SUSPENSION/PLATE); “active; positive. reevaluation of results: positive” (Test System: MOUSE LYMPHOMA, Strain/Indicator: L5178Y (TK+/TK-), Metabolic Activation: RAT, LIVER, S-9, AROCLOR 1254, Method: SUSPENSION/PLATE).

On to `C=Cc1c(C)c2[n-]c1=CC1=NC(=CC3=C(C)C(=C([O-])[O-])C(=N3)C(CC(=O)[O-])=C3N=C(C=2)C(C)C3CCC(=O)[O-])C(CC)=C1C.[Cu+2].[Na+].[Na+].[Na+]` (centres undefined), for which the mutagenic call is, setting by setting: (Test System: AMES SALMONELLA TYPHIMURIUM, Strain/Indicator: TA97, Metabolic Activation: NONE, Method: PREINCUBATION) “inactive; negative”; (Test System: AMES SALMONELLA TYPHIMURIUM, Strain/Indicator: TA97, Metabolic Activation: S-9, Method: PREINCUBATION) “inactive; negative”; under setting [1], “inactive; negative”; (Test System: AMES SALMONELLA TYPHIMURIUM, Strain/Indicator: TA102, Metabolic Activation: S-9, Method: PREINCUBATION) “inactive; negative”; (Test System: CHINESE HAMSTER OVARY, Strain/Indicator: CHO-K1 (HGPRT)/6-THIOGUANINE) “inactive; negative”.

Regarding `COC(=O)c1cc(Oc2ccc(Cl)cc2Cl)ccc1[N+](=O)[O-]`, the mutagenic call reads like this: (Test System: AMES SALMONELLA TYPHIMURIUM, Strain/Indicator: YG1021, Metabolic Activation: NONE, Method: PREINCUBATION) “inactive; negative”; (Test System: AMES SALMONELLA TYPHIMURIUM, Strain/Indicator: YG1021, Metabolic Activation: RAT, LIVER, S-9, PCB, Method: PREINCUBATION) “inactive; negative”; (Test System: AMES SALMONELLA TYPHIMURIUM, Strain/Indicator: YG1026, Metabolic Activation: NONE, Method: PREINCUBATION) “inactive; negative”; (Test System: AMES SALMONELLA TYPHIMURIUM, Strain/Indicator: YG1026, Metabolic Activation: RAT, LIVER, S-9, PCB, Method: PREINCUBATION) “active; positive”.
